How the values were obtained:
[1] = system: olig2APC+ oligodendrocytes in the periventricular white matter of the corpus callosum; assay: Perinatal mouse model of sepsis-associated myelin injury, stereological oligodendrocyte counting; format: in vivo, mice; conditions: sepsis injury on postnatal day 5; 100 mg/kg/day subcutaneous for 5 days from 24 hours after injury; stereology on postnatal day 25; p=0.001
Protocol: Quantification of oligodendrocyte cell numbers in the brain is critical to determining the impact of oxysterol therapy. Stereology is a useful research tool used by neuroscientists to provide accurate and unbiased estimates of cell numbers within specified brain regions. The number of oligodendrocyte numbers is determined using Stereo Investoigator™ software (MBF Bioscience) and a Zeiss Axiolmager M2 motorized fluorescent microscope with Apotome structured illumination. Perfusion fixed cryoprotected brains are frozen sectioned at […] and collected free-floating in phosphate buffered saline. […] Olig2+APC+ nucleated cells are then counted throughout the corpus callosum using a 63× oil objective lens.
Perinatal bowel perforation is a common complication of premature birth and is strongly linked to myelin injury and cerebral palsy. Using a perinatal mouse model of bowel perforation to induce sepsis-associated diffuse myelin injury on postnatal day 5, sepsis mice were determined to have a 60% reduction of mature oligodendrocytes at postnatal day 25 (FIG. 3).
To determine the efficacy of oxysterol therapy, the perinatal mouse model was employed to induce injury in mice on postnatal day 5. […] Coronal sections of the brains were analyzed using stereology on postnatal day 25 to determine the number of olig2APC+ oligodendrocytes in the periventricular white matter of the corpus callosum. […]

[2] = system: sepsis-induced myelin injury; assay: CatWalk gait analysis of mice after perinatal sepsis-induced myelin injury; format: in vivo; conditions: sepsis-injured mice
From the text: The detection of differences in locomotor function is an important tool for the assessment of the severity of many conditions that affect the central nervous system (CNS), peripheral nervous system (PNS) and skeletal structures or muscles. A gait analysis system, such as the CatWalk™ XT, provides automatic and sensitive detection of a full range of parameters related to footprints and the dynamics of gait in animal testing.
The impact of oxysterol therapy on motor function in injured mice was also determined. Mice were subjected to sepsis-induced myelin injury on postnatal day 5. Twenty-four hours after injury, septic mice were divided into a vehicle control group and an oxysterol treated group. Treatment with 20α-hydroxycholesterol (100 mg/kg/day) was carried out daily for five days. At two months of age (adult), mice were evaluated on a CatWalk Gait Analysis System (Noldus Inc.). The gait analysis system identified multiple disturbances in the gait of untreated mature mice that survived perinatal sepsis. However, these gait disturbances were not present in mice treated with 20α-hydroxycholesterol.
Regularity Index: Regularity Index is a measure of interpaw coordination, and disturbances in regularity may be a result of cerebral injury. The Regularity Index was determined for uninjured control mice (FIG. 4A, FIG. 4D), sepsis mice (FIG. 4B, FIG. 4D), and septic mice treated with the oxysterol 20HC (FIG. 4C, FIG. 4D).
Stand and step cycle: Stand and step cycle are measures of the length of time the animal's paws are in contact with the platform as they walk. Increased stand and step cycle times are measures of gait instability.
Swing and swing speed: Swing and swing speed are measures of the animals “rocking” as they walk. While the swing was increased in perinatal sepsis survivors (FIG. 5C), the swing speed was decreased in sepsis survivors (FIG. 5D) consistant with an unsteady gait.

[3] = biological target: smoothened (SMO) (Homo sapiens, UniProt Q99835); conditions: fibroblast cell culture systems; recent studies; cited from earlier work
[4] = system: primary neural stem cells from neonatal mice; assay: In vitro oligodendrocyte differentiation from neural stem cells; format: cell-based
Protocol: To determine the impact of oxysterol exposure on cellular differentiation, primary neural stem cells from neonatal mice were cultured in chamber slides. Cells were cultured in media alone (control) or 1 μM 20α-hydroxycholesterol for 7 days were then allowed to differentiate for 18 days. The differentiated cells were immunostained for markers of oligodendrocytes (Olig2 and CNPase) and visualized on a confocal microscope (FIG. 1A). […] Protein samples from control and 20α-hydroxycholesterol treated stem cell cultures were then fractionated and probed for markers of the oligodendrocyte lineage.

[5] = system: olig2+ cells in the corpus callosum; assay: In vivo oligodendrocyte differentiation in uninjured postnatal mice; conditions: uninjured five-day old mice, 100 mg/kg/day subcutaneously, 4 daily doses, analyzed five days after final injection; vs vehicle; p<0.02
Protocol: 20α-hydroxycholesterol was administered to uninjured postnatal mice during the normal myelination period to determine if oxysterol exposure increased the numbers of oligodendrocytes in vivo. Five-day old mice were administered 4 daily doses of vehicle control (n=4) or 20α-hydroxycholesterol (n=4) subcutaneously (100 mg/kg/day) and rested. Five days after the final injection, the mice were analyzed to quantify the number of olig2+ cells in the corpus callosum (FIG. 2A, FIG. 2B).

[6] = system: Primary neural stem cells; assay: In vitro oligodendrocyte differentiation from neural stem cells with breast milk-associated oxysterols (western blot); format: cell-based; conditions: 1 μm and 0.5 μm for five days, then 18 days differentiation; FIG. 8
Protocol: FIG. 8 is a western blot analysis. Stem cells were treated with oxysterols at doses indicated for 5 days then allowed to differentiate for 18 days. Primary neural stem cells were treated with 24-hydroxycholesterol and 25-hydroxycholesterol at 1 μm and 0.5 μm for five days, then allowed to differentiate for 18 days. Protein lysates were probed for oligodendrocyte-associated proteins CNPase and myelin basic protein (MBP).

Sequence of smoothened (SMO) (Q99835 28-787): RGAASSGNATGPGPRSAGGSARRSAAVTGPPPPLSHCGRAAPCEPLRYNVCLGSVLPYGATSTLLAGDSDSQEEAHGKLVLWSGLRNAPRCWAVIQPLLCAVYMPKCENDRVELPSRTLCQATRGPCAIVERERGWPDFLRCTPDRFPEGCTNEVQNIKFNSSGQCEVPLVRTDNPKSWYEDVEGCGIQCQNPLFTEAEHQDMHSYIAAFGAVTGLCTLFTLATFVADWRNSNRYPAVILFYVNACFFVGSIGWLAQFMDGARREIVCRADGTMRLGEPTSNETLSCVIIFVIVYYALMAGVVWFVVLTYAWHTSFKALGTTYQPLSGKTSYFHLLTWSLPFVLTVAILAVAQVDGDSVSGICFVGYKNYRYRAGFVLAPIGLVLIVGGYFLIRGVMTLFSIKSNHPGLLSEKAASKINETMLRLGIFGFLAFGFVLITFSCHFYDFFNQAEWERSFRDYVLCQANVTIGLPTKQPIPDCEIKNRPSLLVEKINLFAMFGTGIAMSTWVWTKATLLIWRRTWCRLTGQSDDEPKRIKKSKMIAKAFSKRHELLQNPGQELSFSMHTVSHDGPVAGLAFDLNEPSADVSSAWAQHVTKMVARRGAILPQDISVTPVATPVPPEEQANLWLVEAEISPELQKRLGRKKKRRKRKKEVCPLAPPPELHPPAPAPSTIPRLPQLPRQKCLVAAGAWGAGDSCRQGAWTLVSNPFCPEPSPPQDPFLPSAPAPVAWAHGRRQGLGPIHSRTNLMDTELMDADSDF

With `CC(C)CCC[C@](C)(O)[C@H]1CC[C@H]2[C@@H]3CC=C4C[C@@H](O)CC[C@]4(C)[C@H]3CC[C@@]21C` [20α-hydroxycholesterol] the “amount of oligodendrocytes (olig2APC+) within the periventricular white matter” value [1] was “significantly increased”, the “gait disturbances (CatWalk Gait Analysis System)” value ([2]; 100 mg/kg/day daily for five days, evaluated at two months of age) was “not present” and the “Regularity Index (interpaw coordination)” value ([2]; 100 mg/kg/day daily for five days, two months of age, FIG. 4D) was “completely reversed any observed deficits”. For the same molecule, the “Swing and swing speed” value ([2]; FIG. 5C, 5D) was “reversed all of these measures of gait disturbances”, the “SHH pathway activation via direct binding to smoothened (SMO)” value [3] was “activate the SHH pathway” and the “olig2+ CNPase+ cells (oligodendrocytes), cell counting” value ([4]; 1 μM for 7 days, then 18 days differentiation, vs media alone, p<0.02, FIG. 1C) was “significant increase”. The “CNPase, Olig2 and myelin basic protein (MBP), Western blot” value ([4]; 1 μM treated stem cell cultures vs control, FIG. 1D) was “increase” and the “olig2+ cell population in the corpus callosum” value [5] was “significant increase”.

In the case of `CC(C)CC[C@@H](O)[C@@H](C)[C@H]1CC[C@H]2[C@@H]3CC=C4C[C@@H](O)CC[C@]4(C)[C@H]3CC[C@]12C` [22α-hydroxycholesterol], the “SHH pathway activation via direct binding to smoothened (SMO)” value [3] is given as “activate the SHH pathway”.

In the case of `CC(C)C(O)CC[C@@H](C)[C@H]1CC[C@H]2[C@@H]3CC=C4C[C@@H](O)CC[C@]4(C)[C@H]3CC[C@]12C` (some centres unmarked) [24-hydroxycholesterol], the “expression of oligodendrocyte-associated proteins CNPase and MBP (western blot)” value [6] is reported as “induced expression”.

In the case of `C[C@H](CCCC(C)(C)O)[C@H]1CC[C@H]2[C@@H]3CC=C4C[C@@H](O)CC[C@]4(C)[C@H]3CC[C@]12C` [25-hydroxycholesterol], the “expression of oligodendrocyte-associated proteins CNPase and MBP (western blot)” value [6] is reported as “induced expression”.
